Assay results published in patent publication US11767341B2, “Lincosamide antibiotics and uses thereof” (President and Fellows of Harvard College, priority 2017, dated 2023).
≈ marks a conversion by molar mass, not a printed value.

Each compound was assayed on P. aeruginosa ATCC 27853 (assay: MIC determination). Settings: Pseudomonas aeruginosa, ATCC27853; P. aeruginosa ATCC 27853; read-out: MIC.
Assay type: cell-based

SMILES | MIC [µg/mL]
CSC1O[C@H]([C@H](NC(=O)[C@@H]2[C@@H]3OCC=CC[C@H]3CN2C)[C@H](C)Sc2ccc(-c3cccnc3)cc2)C(O)[C@@H](O)[C@H]1O (stereo partly drawn) [FSA-213064] | > 64

Each compound was assayed on S. aureus BAA 977 iErmA (assay: MIC determination). Settings: Staphylococcus aureus, BAA977.
Assay type: cell-based

SMILES | MIC [µg/mL]
CSC1O[C@H]([C@H](NC(=O)[C@H]2NC[C@@H]3CC(N)CCO[C@H]32)[C@H](C)Cl)C(O)[C@@H](O)[C@H]1O (stereo partly drawn) [FSA-510012] | > 64
CSC1O[C@H]([C@H](NC(=O)[C@@H]2[C@@H]3OCC=CC[C@H]3CN2C)[C@H](C)Sc2ccc(-c3cccnc3)cc2)C(O)[C@@H](O)[C@H]1O (stereo partly drawn) [FSA-213064] | 0.25 (≈ 0.415 µM)
CNC1CCO[C@@H]2[C@H](CN[C@@H]2C(=O)N[C@H]([C@H](C)Cl)[C@H]2OC(SC)[C@H](O)[C@H](O)C2O)C1 (stereo partly drawn) [FSA-510065] | > 64

These compounds were tested on S. aureus MP-549 msr(a) USA 300 (assay: MIC determination). Settings: Staphylococcus aureus, USA300, S. aureus MP-549 msr(a) USA 300.
Assay type: cell-based

SMILES | MIC [µg/mL]
CSC1O[C@H]([C@H](NC(=O)[C@H]2NC[C@@H]3CC(N)CCO[C@H]32)[C@H](C)Cl)C(O)[C@@H](O)[C@H]1O (stereo partly drawn) [FSA-510012] | > 64
CSC1O[C@H]([C@H](NC(=O)[C@@H]2[C@@H]3OCC=CC[C@H]3CN2C)[C@H](C)Sc2ccc(-c3cccnc3)cc2)C(O)[C@@H](O)[C@H]1O (stereo partly drawn) [FSA-213064] | 0.25 (≈ 0.415 µM)
CNC1CCO[C@@H]2[C@H](CN[C@@H]2C(=O)N[C@H]([C@H](C)Cl)[C@H]2OC(SC)[C@H](O)[C@H](O)C2O)C1 (stereo partly drawn) [FSA-510065] | > 64

What follows are compounds tested on S. pneumoniae MMX 3028 cErmB (assay: MIC determination). Settings: Streptococcus pneumoniae, MMX3028CERMB; S. pneumoniae MMX 3028 cErmB; read-out: MIC.
Assay type: cell-based

SMILES | MIC [µg/mL]
CSC1O[C@H]([C@H](NC(=O)[C@@H]2[C@@H]3OCC=CC[C@H]3CN2C)[C@H](C)Sc2ccc(-c3cccnc3)cc2)C(O)[C@@H](O)[C@H]1O (stereo partly drawn) [FSA-213064] | 8 (≈ 13.3 µM)

The compounds below were run on C. difficile BAA 1805 (assay: MIC determination). Settings: Clostridioides difficile, BAA1805.
Assay type: cell-based

SMILES | MIC [µg/mL]
CSC1O[C@H]([C@H](NC(=O)[C@H]2NC[C@@H]3CC(N)CCO[C@H]32)[C@H](C)Cl)C(O)[C@@H](O)[C@H]1O (stereo partly drawn) [FSA-510012] | > 64
CNC1CCO[C@@H]2[C@H](CN[C@@H]2C(=O)N[C@H]([C@H](C)Cl)[C@H]2OC(SC)[C@H](O)[C@H](O)C2O)C1 (stereo partly drawn) [FSA-510065] | > 64

The compounds below were run on E. faecalis ATCC 29212 (assay: MIC determination). Settings: Enterococcus faecalis, ATCC29212.
Assay type: cell-based

SMILES | MIC [µg/mL]
CSC1O[C@H]([C@H](NC(=O)[C@H]2NC[C@@H]3CC(N)CCO[C@H]32)[C@H](C)Cl)C(O)[C@@H](O)[C@H]1O (stereo partly drawn) [FSA-510012] | > 64
CNC1CCO[C@@H]2[C@H](CN[C@@H]2C(=O)N[C@H]([C@H](C)Cl)[C@H]2OC(SC)[C@H](O)[C@H](O)C2O)C1 (stereo partly drawn) [FSA-510065] | > 64

Same assay, conditions: Enterococcus faecalis, ATCC29212, read-out: MIC

SMILES | MIC [µg/mL]
CSC1O[C@H]([C@H](NC(=O)[C@@H]2[C@@H]3OCC=CC[C@H]3CN2C)[C@H](C)Sc2ccc(-c3cccnc3)cc2)C(O)[C@@H](O)[C@H]1O (stereo partly drawn) [FSA-213064] | 32 (≈ 53.2 µM)

These compounds were tested on K. pneumoniae ATCC 10031 (assay: MIC determination). Settings: Klebsiella pneumoniae, ATCC10031.
Assay type: cell-based

SMILES | MIC [µg/mL]
CSC1O[C@H]([C@H](NC(=O)[C@H]2NC[C@@H]3CC(N)CCO[C@H]32)[C@H](C)Cl)C(O)[C@@H](O)[C@H]1O (stereo partly drawn) [FSA-510012] | > 64
CNC1CCO[C@@H]2[C@H](CN[C@@H]2C(=O)N[C@H]([C@H](C)Cl)[C@H]2OC(SC)[C@H](O)[C@H](O)C2O)C1 (stereo partly drawn) [FSA-510065] | > 64

Same assay, conditions: Klebsiella pneumoniae, ATCC10031; K. pneumoniae ATCC 10031; read-out: MIC

SMILES | MIC [µg/mL]
CSC1O[C@H]([C@H](NC(=O)[C@@H]2[C@@H]3OCC=CC[C@H]3CN2C)[C@H](C)Sc2ccc(-c3cccnc3)cc2)C(O)[C@@H](O)[C@H]1O (stereo partly drawn) [FSA-213064] | 64 (≈ 106 µM)

These compounds were tested on E. coli ATCC 25922 (assay: MIC determination). Settings: Escherichia coli, ATCC25922.
Assay type: cell-based

SMILES | MIC [µg/mL]
CSC1O[C@H]([C@H](NC(=O)[C@H]2NC[C@@H]3CC(N)CCO[C@H]32)[C@H](C)Cl)C(O)[C@@H](O)[C@H]1O (stereo partly drawn) [FSA-510012] | > 64
CNC1CCO[C@@H]2[C@H](CN[C@@H]2C(=O)N[C@H]([C@H](C)Cl)[C@H]2OC(SC)[C@H](O)[C@H](O)C2O)C1 (stereo partly drawn) [FSA-510065] | > 64

Same assay, conditions: Escherichia coli, ATCC25922, E. coli ATCC 25922; read-out: MIC

SMILES | MIC [µg/mL]
CSC1O[C@H]([C@H](NC(=O)[C@@H]2[C@@H]3OCC=CC[C@H]3CN2C)[C@H](C)Sc2ccc(-c3cccnc3)cc2)C(O)[C@@H](O)[C@H]1O (stereo partly drawn) [FSA-213064] | > 64

These compounds were tested on S. aureus MMX 3035 cErmA (assay: MIC determination). Settings: Staphylococcus aureus, MMX3035CERMA.
Assay type: cell-based

SMILES | MIC [µg/mL]
CSC1O[C@H]([C@H](NC(=O)[C@@H]2[C@@H]3OCC=CC[C@H]3CN2C)[C@H](C)Sc2ccc(-c3cccnc3)cc2)C(O)[C@@H](O)[C@H]1O (stereo partly drawn) [FSA-213064] | 16 (≈ 26.6 µM)

What follows are compounds tested on S. pyogenes ATCC 19615 (assay: MIC determination). Settings: Streptococcus pyogenes, ATCC19615; S. pyogenes ATCC 19615; read-out: MIC.
Assay type: cell-based

SMILES | MIC [µg/mL]
CSC1O[C@H]([C@H](NC(=O)[C@H]2NC[C@@H]3CC(N)CCO[C@H]32)[C@H](C)Cl)C(O)[C@@H](O)[C@H]1O (stereo partly drawn) [FSA-510012] | 32 (≈ 70.5 µM)
CSC1O[C@H]([C@H](NC(=O)[C@@H]2[C@@H]3OCC=CC[C@H]3CN2C)[C@H](C)Sc2ccc(-c3cccnc3)cc2)C(O)[C@@H](O)[C@H]1O (stereo partly drawn) [FSA-213064] | ≤ 0.125
CNC1CCO[C@@H]2[C@H](CN[C@@H]2C(=O)N[C@H]([C@H](C)Cl)[C@H]2OC(SC)[C@H](O)[C@H](O)C2O)C1 (stereo partly drawn) [FSA-510065] | 32 (≈ 68.4 µM)

The compounds below were run on E. faecalis MMX 847 Macrolide-Resistant (assay: MIC determination). Settings: Enterococcus faecalis; E. faecalis MMX 847 Macrolide-Resistant (MacRes); read-out: MIC.
Assay type: cell-based

SMILES | MIC [µg/mL]
CSC1O[C@H]([C@H](NC(=O)[C@@H]2[C@@H]3OCC=CC[C@H]3CN2C)[C@H](C)Sc2ccc(-c3cccnc3)cc2)C(O)[C@@H](O)[C@H]1O (stereo partly drawn) [FSA-213064] | > 64

These compounds were tested on S. aureus ATCC 29213 (assay: MIC determination). Settings: Staphylococcus aureus, ATCC29213.
Assay type: cell-based

SMILES | MIC [µg/mL]
CSC1O[C@H]([C@H](NC(=O)[C@H]2NC[C@@H]3CC(N)CCO[C@H]32)[C@H](C)Cl)C(O)[C@@H](O)[C@H]1O (stereo partly drawn) [FSA-510012] | > 64
CNC1CCO[C@@H]2[C@H](CN[C@@H]2C(=O)N[C@H]([C@H](C)Cl)[C@H]2OC(SC)[C@H](O)[C@H](O)C2O)C1 (stereo partly drawn) [FSA-510065] | > 64

Same assay, conditions: Staphylococcus aureus, ATCC29213, S. aureus ATCC 29213; read-out: MIC

SMILES | MIC [µg/mL]
CSC1O[C@H]([C@H](NC(=O)[C@@H]2[C@@H]3OCC=CC[C@H]3CN2C)[C@H](C)Sc2ccc(-c3cccnc3)cc2)C(O)[C@@H](O)[C@H]1O (stereo partly drawn) [FSA-213064] | 0.25 (≈ 0.415 µM)

The compounds below were run on E. coli MP-9 ΔTolC (assay: MIC determination). Settings: Escherichia coli.
Assay type: cell-based

SMILES | MIC [µg/mL]
CSC1O[C@H]([C@H](NC(=O)[C@H]2NC[C@@H]3CC(N)CCO[C@H]32)[C@H](C)Cl)C(O)[C@@H](O)[C@H]1O (stereo partly drawn) [FSA-510012] | > 64
CSC1O[C@H]([C@H](NC(=O)[C@@H]2[C@@H]3OCC=CC[C@H]3CN2C)[C@H](C)Sc2ccc(-c3cccnc3)cc2)C(O)[C@@H](O)[C@H]1O (stereo partly drawn) [FSA-213064] | 16 (≈ 26.6 µM)
CNC1CCO[C@@H]2[C@H](CN[C@@H]2C(=O)N[C@H]([C@H](C)Cl)[C@H]2OC(SC)[C@H](O)[C@H](O)C2O)C1 (stereo partly drawn) [FSA-510065] | > 64

The compounds below were run on S. pneumoniae ATCC 49619 (assay: MIC determination). Settings: Streptococcus pneumoniae, ATCC49619.
Assay type: cell-based

SMILES | MIC [µg/mL]
CSC1O[C@H]([C@H](NC(=O)[C@H]2NC[C@@H]3CC(N)CCO[C@H]32)[C@H](C)Cl)C(O)[C@@H](O)[C@H]1O (stereo partly drawn) [FSA-510012] | > 64
CNC1CCO[C@@H]2[C@H](CN[C@@H]2C(=O)N[C@H]([C@H](C)Cl)[C@H]2OC(SC)[C@H](O)[C@H](O)C2O)C1 (stereo partly drawn) [FSA-510065] | > 64

Same assay, conditions: Streptococcus pneumoniae, ATCC49619; S. pneumoniae ATCC 49619; read-out: MIC

SMILES | MIC [µg/mL]
CSC1O[C@H]([C@H](NC(=O)[C@@H]2[C@@H]3OCC=CC[C@H]3CN2C)[C@H](C)Sc2ccc(-c3cccnc3)cc2)C(O)[C@@H](O)[C@H]1O (stereo partly drawn) [FSA-213064] | ≤ 0.125

The compounds below were run on S. pyogenes MMX 946 Macrolide-Resistant (assay: MIC determination). Settings: Streptococcus pyogenes; S. pyogenes MMX 946 Macrolide-Resistant (MacRes); read-out: MIC.
Assay type: cell-based

SMILES | MIC [µg/mL]
CSC1O[C@H]([C@H](NC(=O)[C@@H]2[C@@H]3OCC=CC[C@H]3CN2C)[C@H](C)Sc2ccc(-c3cccnc3)cc2)C(O)[C@@H](O)[C@H]1O (stereo partly drawn) [FSA-213064] | 2 (≈ 3.32 µM)

What follows are compounds tested on H. influenzae ATCC 49247 (assay: MIC determination). Settings: Haemophilus influenzae, ATCC49247.
Assay type: cell-based

SMILES | MIC [µg/mL]
CSC1O[C@H]([C@H](NC(=O)[C@H]2NC[C@@H]3CC(N)CCO[C@H]32)[C@H](C)Cl)C(O)[C@@H](O)[C@H]1O (stereo partly drawn) [FSA-510012] | > 64
CNC1CCO[C@@H]2[C@H](CN[C@@H]2C(=O)N[C@H]([C@H](C)Cl)[C@H]2OC(SC)[C@H](O)[C@H](O)C2O)C1 (stereo partly drawn) [FSA-510065] | > 64

Each compound was assayed on E. coli MP-74 LptD mutant (assay: MIC determination). Settings: Escherichia coli.
Assay type: cell-based

SMILES | MIC [µg/mL]
CSC1O[C@H]([C@H](NC(=O)[C@H]2NC[C@@H]3CC(N)CCO[C@H]32)[C@H](C)Cl)C(O)[C@@H](O)[C@H]1O (stereo partly drawn) [FSA-510012] | > 64
CNC1CCO[C@@H]2[C@H](CN[C@@H]2C(=O)N[C@H]([C@H](C)Cl)[C@H]2OC(SC)[C@H](O)[C@H](O)C2O)C1 (stereo partly drawn) [FSA-510065] | > 64

These compounds were tested on S. pneumoniae MMX 3031 cMefA (assay: MIC determination). Settings: Streptococcus pneumoniae, MMX3031CMEFA.
Assay type: cell-based

SMILES | MIC [µg/mL]
CSC1O[C@H]([C@H](NC(=O)[C@@H]2[C@@H]3OCC=CC[C@H]3CN2C)[C@H](C)Sc2ccc(-c3cccnc3)cc2)C(O)[C@@H](O)[C@H]1O (stereo partly drawn) [FSA-213064] | 0.125 (≈ 0.208 µM)
